Data from PubChem BioAssay AID2060892 (Molecular Pharmacology Branch, DTP, NCI, 2025).

Tested on: HOP-62 complex spheroids with HUVEC/MSC, viability
Assay: Anticancer human tumor HOP-62 cell line growth inhibition [RAS];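 note: spheroids exposed to agents for seven days before readout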;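 for viability, T/C: 100% = DMSO vehicle control viability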
Conditions: for IC50: curve of first compound; for viability, T/C: stronger effect = lower value
Procedure, shortened: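 Agents were tested in combination matrices in half-log decrements from a top concentration at or near clinical Cmax (10 microM if undetermined). Targets were multi-cell spheroids of tumour lines plus HUVEC and MSC stromal cells.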

C=CC(=O)N1CCN(c2nc(OCC3CCCN3C)nc3c(F)c(-c4nc(N)cc(C)c4C(F)(F)F)c(Cl)cc23)C(C)C1 (configuration not stated) + CCn1c(-c2cccnc2C(C)OC)c2c3cc(ccc31)N1CCOC(CC(NC(=O)C(C(C)C)N(C)C(=O)C3(F)CCN(C(=O)C#CC(C)(C)N(C)C)CC3)C(=O)N3CCCC(N3)C(=O)OCC(C)(C)C2)C1
IC50 (second compound 0.000949 µM): > 1000 nM
IC50 (second compound 0.003 µM): > 1000 nM
IC50 (second compound 0.00949 µM): > 1000 nM
IC50 (second compound 0.03 µM): > 1000 nM
IC50 (second compound 0.0949 µM): > 1000 nM
IC50 (second compound 0.3 µM): > 1000 nM
viability, T/C (second compound 0.000949 µM, first compound 0.00316 µM): 103%
viability, T/C (second compound 0.000949 µM, first compound 0.01 µM): 101%
viability, T/C (second compound 0.000949 µM, first compound 0.0316 µM): 69.5%
viability, T/C (second compound 0.000949 µM, first compound 0.1 µM): 88.2%
viability, T/C (second compound 0.000949 µM, first compound 0.316 µM): 95.6%
viability, T/C (second compound 0.000949 µM, first compound 1 µM): 71.1%
viability, T/C (second compound 0.003 µM, first compound 0.00316 µM): 88.7%
viability, T/C (second compound 0.003 µM, first compound 0.01 µM): 87.3%
viability, T/C (second compound 0.003 µM, first compound 0.0316 µM): 76.8%
viability, T/C (second compound 0.003 µM, first compound 0.1 µM): 92.5%
viability, T/C (second compound 0.003 µM, first compound 0.316 µM): 84.9%
viability, T/C (second compound 0.003 µM, first compound 1 µM): 72.9%
viability, T/C (second compound 0.00949 µM, first compound 0.00316 µM): 90.4%
viability, T/C (second compound 0.00949 µM, first compound 0.01 µM): 87.6%
viability, T/C (second compound 0.00949 µM, first compound 0.0316 µM): 85.3%
viability, T/C (second compound 0.00949 µM, first compound 0.1 µM): 89.8%
viability, T/C (second compound 0.00949 µM, first compound 0.316 µM): 91%
viability, T/C (second compound 0.00949 µM, first compound 1 µM): 74.7%
viability, T/C (second compound 0.03 µM, first compound 0.00316 µM): 91.3%
viability, T/C (second compound 0.03 µM, first compound 0.01 µM): 92%
viability, T/C (second compound 0.03 µM, first compound 0.0316 µM): 87.7%
viability, T/C (second compound 0.03 µM, first compound 0.1 µM): 94.9%
viability, T/C (second compound 0.03 µM, first compound 0.316 µM): 79.1%
viability, T/C (second compound 0.03 µM, first compound 1 µM): 84.3%
viability, T/C (second compound 0.0949 µM, first compound 0.00316 µM): 86.5%
viability, T/C (second compound 0.0949 µM, first compound 0.01 µM): 91.2%
viability, T/C (second compound 0.0949 µM, first compound 0.0316 µM): 83.3%
viability, T/C (second compound 0.0949 µM, first compound 0.1 µM): 92.7%
viability, T/C (second compound 0.0949 µM, first compound 0.316 µM): 71.8%
viability, T/C (second compound 0.0949 µM, first compound 1 µM): 87.6%
viability, T/C (second compound 0.3 µM, first compound 0.00316 µM): 95.4%
viability, T/C (second compound 0.3 µM, first compound 0.01 µM): 75.1%
viability, T/C (second compound 0.3 µM, first compound 0.0316 µM): 73%
viability, T/C (second compound 0.3 µM, first compound 0.1 µM): 70.2%
viability, T/C (second compound 0.3 µM, first compound 0.316 µM): 74.6%
viability, T/C (second compound 0.3 µM, first compound 1 µM): 79.4%
